Measurements taken from patent US20190192456A1, “USE OF CELIPROLOL FOR TREATING VASCULAR EHLERS-DANLOS SYNDROME IN WOMEN DURING PREGNANCY AND PERIPARTUM PERIOD” (Assistance Publique-Hôpitaux de Paris (AP-HP), priority 2017, published 2019).

Legend:
Assay type in all cases: in vivo, human
[1] = system: newborn of mothers who received celiprolol during pregnancy and delivery; assay: Newborn well-being after indirect exposure to celiprolol during pregnancy; conditions: n=7 newborn of mothers who received celiprolol during pregnancy and delivery
Procedure: For each newborn, weight and height at birth were recorded and presented as a function of term of pregnancy, as previously described. Health status at birth was assessed by the APGAR score noted in the children's health record, and any significant event that occurred at birth was collected (respiratory failure, pneumothorax, significant verifiable birth defects).
Reference charts for birth weight and size were constructed according to Battaglia et al. with normal values based on approximately 57 000 newborn of the Paris (France) area as reported by Salomon et al.[15].

[2] = system: parturients with molecularly confirmed vascular Ehlers-Danlos syndrome; assay: Maternal morbidity study (obstetrical interview study) of vascular EDS parturients; prescription of celiprolol during pregnancy, delivery and post-partum period
Procedure: For each pregnancy, date and time of delivery were recorded, as well as term of pregnancy at birth, expressed in weeks of amenorrhea (WA). In case of preterm labour or premature rupture of membranes (PROM), gestational age of occurrence was noted. Ongoing treatments during pregnancy were recorded, especially betablockers (celiprolol). In case of anaesthesia, type of ([…], general) and complications were collected (haematoma, leakage of spinal fluid, pneumothorax for general anaesthesia). Delivery was described as follows: type (vaginal, c-section), duration of labour for vaginal delivery and the use of forceps or episiotomy. Vascular complications were defined by the occurrence of arterial dissections and ruptures during pregnancy, delivery and during the post-partum period defined as 42 days after delivery. Haemorrhagic complications were defined by, either significant bleeding when reported as such by patients and/or medical records, either by bleeding requiring blood transfusion or post-partum haemorrhage. Bleeding events >1000 ml with hemodynamic collapse are reported as haemorrhagic shock. Perineal damage was defined by the occurrence of a perineal tear related or not with episiotomy. Perineal injury was graded according to Sultan et al., from grade I (limited defect of perineal skin), to grade IV (injury of the perineum involving the anal sphincter complex and epithelium) perineal tears.
After the first interview, all relevant obstetrical data, especially term of pregnancies and obstetrical complications (preterm labour, PROM, uterine rupture, haemorrhage) were independently checked for accuracy of diagnosis and staging by a senior obstetrician during a second interview, and hospital records of deliveries were checked, when available.
Programmed Early C-Section and Prescription of Celiprolol
In n=12 (20%) pregnancies of this cohort, diagnosis of maternal vascular EDS (n=11, 28%) was suspected (n=2) or genetically confirmed (n=9) at the time of delivery, with consequent obstetrical management (prescription of celiprolol 200 mg BID in n=7 patients covering 7/12 pregnancies; preterm c-section in n=11/12 deliveries, of which 9 were scheduled).

[3] = system: parturients with vascular Ehlers-Danlos syndrome; assay: Maternal mortality analysis of vascular EDS families; conditions: one patient, 7 months after delivery; programmed early c-section, unremarkable arterial monitoring after the postpartum period
From the text: For the mortality analysis, the medical charts and pedigrees of all patients known to the French referral center for rare vascular diseases (AP-HP, Centre de Référence des Maladies Vasculaires Rares, Hôpital Européen Georges Pompidou, Paris, France) for having a molecularly confirmed vascular EDS, were screened for past or ongoing pregnancies, and for maternal deaths in probands and pedigrees. All families known to our center with at least one proband diagnosed with vascular EDS (nationwide patient cohort) were considered for participation to the maternal mortality analysis after exclusion of ascendants of patients with neomutations (see below). Patients with a personal history of pregnancy were considered for participation to the obstetrical interview study. […]
Maternal deaths were determined according to definitions of the 10th revision of the International Classification of Diseases of the World Health Organization (Geneva 2004). Pregnancy-related deaths defined as the death of a woman while pregnant or within 42 days of termination of pregnancy, irrespective of the cause of death, were determined for probands, first and second degree ascendants. […] A global maternal mortality ratio was then determined, which encompassed pregnancy-related and late maternal mortality ratios. […]

[4] = patients treated with celiprolol 200 mg BID, n=7

CCN(CC)C(=O)Nc1ccc(OCC(O)CNC(C)(C)C)c(C(C)=O)c1 (centres unmarked) [celiprolol, N′-(3-Acetyl-4-(3-((1,1-dimethylethyl)amino)-2-hydroxypropoxy)phenyl)-N,N-diethylurea]
neonatal hypoglycaemia [1]: none of the n=7 newborn | other indications of adverse effects of indirect exposure to celiprolol during pregnancy [1]: nor had other indications of adverse effects | tolerability of celiprolol throughout pregnancy and the post-partum period ([2]; celiprolol 200 mg BID in n=7 patients covering 7/12 pregnancies): well tolerated | dose adjustment in comparison to the dosage prescribed prior to the beginning of each pregnancy ([2]; celiprolol 200 mg BID, n=7 patients, throughout pregnancy and the post-partum period): no dose adjustment was necessary in any patient | arterial event (dissection, rupture) [2, 4]: No arterial event (dissection, rupture) | maternal survival of pregnancies and post-partum periods [2, 4]: all patients treated with celiprolol survived | uterine rupture [2, 4]: nor uterine rupture occurred in any patient | late maternal death by spontaneous intra-abdominal arterial rupture [3]: occurred spontaneously despite a programmed early c-section, medication by celiprolol
